Consider 7 molecules from patent US20240158446A1, “CYCLIC COMPOUND HAVING SELECTIVE INHIBITORY ACTION ON KRAS OVER HRAS AND NRAS” (CHUGAI SEIYAKU KABUSHIKI KAISHA, priority 2021, published 2024).

The target of experiment [1] is GDP-bound HRAS wild-type protein (Homo sapiens, UniProt P01112). The experiment is described as follows: Binding to HRAS by surface plasmon resonance (SPR), Single Cycle Kinetics. Particulars: for HRAS/KRAS (ratio of KD value with respect to HRAS to KD value with respect to KRAS) / HRAS/KRAS (ratio of KD value for HRAS to KD value for KRAS): SPR, GDP-bound HRAS wild-type protein vs GDP-bound KRAS wild-type protein. (In general: Surface plasmon resonance follows binding to a sensor surface in real time, without labels.)
Sequence of GDP-bound HRAS wild-type protein (P01112 whole entry): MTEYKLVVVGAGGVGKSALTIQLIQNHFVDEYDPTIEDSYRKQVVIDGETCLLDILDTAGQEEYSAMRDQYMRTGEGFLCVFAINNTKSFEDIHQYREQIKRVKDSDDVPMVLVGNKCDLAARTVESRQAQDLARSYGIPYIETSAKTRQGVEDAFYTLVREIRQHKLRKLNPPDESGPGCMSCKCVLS

Experiment [2] deals with GDP-bound NRAS wild-type protein (Homo sapiens, UniProt P01111). The experiment is described as follows: Binding to NRAS by surface plasmon resonance (SPR), Single Cycle Kinetics. The following applies: for NRAS/KRAS (ratio of KD value with respect to NRAS to KD value with respect to KRAS) / NRAS/KRAS (ratio of KD value for NRAS to KD value for KRAS): SPR, GDP-bound NRAS wild-type protein vs GDP-bound KRAS wild-type protein.
Sequence of GDP-bound NRAS wild-type protein (P01111 whole entry): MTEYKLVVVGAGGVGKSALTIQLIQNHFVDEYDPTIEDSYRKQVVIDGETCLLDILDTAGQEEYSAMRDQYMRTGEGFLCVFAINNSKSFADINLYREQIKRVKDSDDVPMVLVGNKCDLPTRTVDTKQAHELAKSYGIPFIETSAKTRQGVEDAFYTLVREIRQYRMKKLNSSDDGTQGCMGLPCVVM

The target in experiment [3] is GDP-bound KRAS wild-type protein (Homo sapiens, UniProt P01116). The experiment is described as follows: Binding to KRAS by surface plasmon resonance (SPR), Single Cycle Kinetics. Particulars: GDP-bound KRAS wild-type protein, read-out: KRAS KD.
Sequence of GDP-bound KRAS wild-type protein (P01116 whole entry): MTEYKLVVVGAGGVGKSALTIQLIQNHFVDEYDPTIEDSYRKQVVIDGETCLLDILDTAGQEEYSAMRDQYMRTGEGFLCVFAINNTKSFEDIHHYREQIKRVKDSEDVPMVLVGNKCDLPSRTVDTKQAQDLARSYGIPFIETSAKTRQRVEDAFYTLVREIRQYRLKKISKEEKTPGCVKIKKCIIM
Where [4] appears, read: SPR Single Cycle Kinetics, 1:1 binding model.

Structures are written as SMILES. Where two headings read alike, the source gives them in different places. Where a SMILES comes first, the peptide text is derived from it. Bridges are numbered along the chain shown (N, C = ends). [ ]: non-standard residue; d: D form. The star is where a group is joined. hPhe(3,5-F2-4-CF3) = N[C@@H](CCc1cc(F)c(C(F)(F)F)c(F)c1)C(=O)O; hPhe(3-Cl-4-CF3) = N[C@@H](CCc1ccc(C(F)(F)F)c(Cl)c1)C(=O)O; NPrPhe(4-CF3) = CCCN[C@@H](Cc1ccc(C(F)(F)F)cc1)C(=O)O; NMeGly(cPent) = CN[C@H](C(=O)O)C1CCCC1; NMeD = CN[C@@H](CC(=O)O)C(=O)O; NMeL = CN[C@@H](CC(C)C)C(=O)O; αMeS = C[C@](N)(CO)C(=O)O; NMeA = CN[C@@H](C)C(=O)O; Ac5c = NC1(C(=O)O)CCCC1; Aze = O=C(O)[C@@H]1CCN1; Ac4c = NC1(C(=O)O)CCC1; Sar = CNCC(=O)O; Allyl = C=CC*

With `CCO[C@@H]1C[C@H]2C(=O)NC3(CCC3)C(=O)N(C)[C@@H](C3CCCC3)C(=O)N(C)[C@H](C(=O)N(C)C)CC(=O)N(C)[C@@H](COC)C(=O)N[C@@H]([C@@H](C)CC)C(=O)N(C)CC(=O)N(C)[C@H]3CCCCN(C3=O)[C@@H](Cc3ccc(C(F)(F)F)cc3)C(=O)N(C)CC(=O)N[C@@H](CCc3cc(F)c(C(F)(F)F)c(F)c3)C(=O)N2C1` [PP0704], the “HRAS/KRAS (ratio of KD value with respect to HRAS to KD value with respect to KRAS)” value in experiment [1] was “C (A compound having a KD ratio of 0.1 or more and less than 3 is denoted as C)”. In addition, in experiment [2], the “NRAS/KRAS (ratio of KD value with respect to NRAS to KD value with respect to KRAS)” value is “C (A compound having a KD ratio of 0.1 or more and less than 3 is denoted as C)”. For the same molecule, the Kd in experiment [3] (setting [4]) stood at 0.011 nM.
As for `CC[C@H](C)[C@@H]1NC(=O)[C@H](CC(C)C)N(C)C(=O)C[C@@H](C(=O)N2CCOCC2)N(C)C(=O)[C@H](C2CCCC2)N(C)C(=O)C2(CCCCC2)NC(=O)[C@@H]2CCCN2C(=O)[C@H](CCc2cc(F)c(C(F)(F)F)c(F)c2)NC(=O)CN(C)C(=O)[C@H](Cc2ccc(C(F)(F)F)cc2)N2CCCCC[C@@H](C2=O)N(C)C(=O)CN(C)C1=O` [PP0498], the “HRAS/KRAS (ratio of KD value with respect to HRAS to KD value with respect to KRAS)” value in experiment [1] was “B (a compound having 3 or more and less than 10 is denoted as B)”. The “NRAS/KRAS (ratio of KD value with respect to NRAS to KD value with respect to KRAS)” value in experiment [2] is “B (a compound having 3 or more and less than 10 is denoted as B)”. In addition, the Kd in experiment [3] (setting [4]) came to 18 nM.
Consider `CCCN1C(=O)CN(C)C(=O)CNC(=O)[C@H]([C@@H](C)CC)NC(=O)[C@H](CC(C)C)N(C)C(=O)C[C@@H](C(=O)N(C)C)NC(=O)[C@H](C2CCCC2)N(C)C(=O)C2(CCCC2)NC(=O)[C@@H]2CCCN2C(=O)[C@H](CCc2ccc(C(F)(F)F)c(Cl)c2)NC(=O)CN(C)C(=O)[C@@H]1Cc1ccc(C(F)(F)F)cc1` [PP0361] ([NMeL]IG[Sar][NPrPhe(4-CF3)][Sar][hPhe(3-Cl-4-CF3)]P[Ac5c][NMeGly(cPent)]D-NMe2; lactam N-11), for which, in experiment [1], the “HRAS/KRAS (ratio of KD value for HRAS to KD value for KRAS)” value is “C (A compound having a KD ratio of 0.1 or more and less than 3 is denoted as C)”. The “NRAS/KRAS (ratio of KD value for NRAS to KD value for KRAS)” value in experiment [2] is “B (a compound having 3 or more and less than 10 is denoted as B)”. The Kd in experiment [3] (setting [4]) was 0.72 nM.
On to `C=CCOC[C@]1(C)NC(=O)[C@@H]2CCCN2C(=O)[C@H](CCc2cc(F)c(C(F)(F)F)c(F)c2)NC(=O)CN(C)C(=O)[C@H](Cc2ccc(C(F)(F)F)cc2)N(CCC)C(=O)CN(C)C(=O)CN(C)C(=O)[C@H]([C@@H](C)CC)NC(=O)[C@H](CC(C)C)N(C)C(=O)C[C@@H](C(=O)N(C)C)N(C)C(=O)[C@H](C2CCCC2)N(C)C1=O` [PP0742] ([NMeL]I[Sar][Sar][NPrPhe(4-CF3)][Sar][hPhe(3,5-F2-4-CF3)]P[αMeS](Allyl)[NMeGly(cPent)][NMeD]-NMe2; lactam N-11), for which the “HRAS/KRAS (ratio of KD value with respect to HRAS to KD value with respect to KRAS)” value in experiment [1] was “B (a compound having 3 or more and less than 10 is denoted as B)”. Besides, the “NRAS/KRAS (ratio of KD value with respect to NRAS to KD value with respect to KRAS)” value in experiment [2] was “B (a compound having 3 or more and less than 10 is denoted as B)”. The Kd in experiment [3] (setting [4]) is 0.51 nM.
Regarding `CCCN1C(=O)[C@@H]2CCN2C(=O)[C@H](C)N(C)C(=O)[C@H]([C@@H](C)CC)NC(=O)[C@H](CC(C)C)N(C)C(=O)C[C@@H](C(=O)N(C)C)N(C)C(=O)[C@H](C2CCCC2)N(C)C(=O)C2(CCC2)NC(=O)[C@@H]2CCCN2C(=O)[C@H](CCc2ccc(C(F)(F)F)c(Cl)c2)NC(=O)CN(C)C(=O)[C@@H]1Cc1ccc(C(F)(F)F)cc1` [PP0435] ([NMeL]I[NMeA][Aze][NPrPhe(4-CF3)][Sar][hPhe(3-Cl-4-CF3)]P[Ac4c][NMeGly(cPent)][NMeD]-NMe2; lactam N-11), in experiment [1], the “HRAS/KRAS (ratio of KD value with respect to HRAS to KD value with respect to KRAS)” value was “C (A compound having a KD ratio of 0.1 or more and less than 3 is denoted as C)”. For the same molecule, the “NRAS/KRAS (ratio of KD value with respect to NRAS to KD value with respect to KRAS)” value in experiment [2] is “C (A compound having a KD ratio of 0.1 or more and less than 3 is denoted as C)”. Besides, the Kd in experiment [3] (setting [4]) is 0.047 nM.
Turning to `CCO[C@@H]1C[C@H]2C(=O)NC3(CCC3)C(=O)N(C)[C@@H](C3CCCC3)C(=O)N(C)[C@H](C(=O)N(C)C)CC(=O)N(C)[C@@H](CC)C(=O)N[C@@H]([C@@H](C)CC)C(=O)N(C)CC(=O)N(C)[C@H]3CCCCCN(C3=O)[C@@H](Cc3ccc(C(F)(F)F)cc3)C(=O)N(C)CC(=O)N[C@@H](CCc3cc(Cl)c(C(F)(F)F)c(Cl)c3)C(=O)N2C1` [PP0989], the “HRAS/KRAS (ratio of KD value for HRAS to KD value for KRAS)” value in experiment [1] is “B (a compound having 3 or more and less than 10 is denoted as B)”. For the same molecule, in experiment [2], the “NRAS/KRAS (ratio of KD value for NRAS to KD value for KRAS)” value is “B (a compound having 3 or more and less than 10 is denoted as B)”. In experiment [3] (SPR, Single Cycle Kinetics), the dissociation constant Kd came to 1.3 nM.
Turning to `CCC[C@H]1C(=O)N[C@@H]([C@@H](C)CC)C(=O)N(C)CC(=O)N(C)[C@H]2C/C=C\CCN(C2=O)[C@@H](Cc2ccc(C)cc2)C(=O)N(C)CC(=O)N[C@@H](CCc2ccc3c(C)cn(C)c3c2)C(=O)N2C[C@H](OCC)C[C@H]2C(=O)NC2(CC(C)(C)C2)C(=O)N(C)[C@@H](C2CCCC2)C(=O)N(C)[C@H](C(=O)N(C)C)CC(=O)N1C` [PP2899], the “HRAS/KRAS (ratio of KD value with respect to GDP-bound HRAS wild-type protein to KD value with respect to KRAS)” value in experiment [1] (SPR KD ratio HRAS/KRAS, class symbols) is “B (a compound having 3 or more and less than 10 is denoted as B)”. Further, the “NRAS/KRAS (ratio of KD value with respect to GDP-bound NRAS wild-type protein to KD value with respect to KRAS)” value in experiment [2] (SPR KD ratio NRAS/KRAS, class symbols) is “A (a compound having 10 or more and less than 20 is denoted as A)”. Also, the dissociation constant (Kd) in experiment [3] (setting [4]) was 0.85 nM.

For orientation: Kd means the concentration at which binding is half-saturated.
